Columns and labels:
[1] = biological target: T1, Prostaglandin G/H synthase 2 (Homo sapiens, UniProt P35354); test: Inhibition of human recombinant COX2 by EIA
T1 sequence (P35354 whole entry): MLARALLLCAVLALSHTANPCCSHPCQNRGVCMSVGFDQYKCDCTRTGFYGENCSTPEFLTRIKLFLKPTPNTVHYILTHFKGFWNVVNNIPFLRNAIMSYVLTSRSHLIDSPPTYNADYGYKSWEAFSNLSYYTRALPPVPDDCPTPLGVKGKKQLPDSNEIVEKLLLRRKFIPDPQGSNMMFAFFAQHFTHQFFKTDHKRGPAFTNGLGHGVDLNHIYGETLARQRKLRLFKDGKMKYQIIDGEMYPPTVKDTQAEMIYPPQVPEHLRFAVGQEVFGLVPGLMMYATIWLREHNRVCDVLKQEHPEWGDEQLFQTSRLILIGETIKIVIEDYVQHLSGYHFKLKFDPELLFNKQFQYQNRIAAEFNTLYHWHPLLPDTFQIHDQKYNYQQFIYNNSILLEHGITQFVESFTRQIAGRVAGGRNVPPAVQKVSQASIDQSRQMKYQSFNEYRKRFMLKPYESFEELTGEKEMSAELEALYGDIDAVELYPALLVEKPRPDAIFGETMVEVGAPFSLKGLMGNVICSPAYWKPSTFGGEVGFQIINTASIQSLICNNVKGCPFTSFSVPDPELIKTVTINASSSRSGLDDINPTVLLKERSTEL

[2] = biological target: T2, Prostaglandin G/H synthase 1 (Ovis aries, UniProt P05979)
T2 sequence (P05979 whole entry): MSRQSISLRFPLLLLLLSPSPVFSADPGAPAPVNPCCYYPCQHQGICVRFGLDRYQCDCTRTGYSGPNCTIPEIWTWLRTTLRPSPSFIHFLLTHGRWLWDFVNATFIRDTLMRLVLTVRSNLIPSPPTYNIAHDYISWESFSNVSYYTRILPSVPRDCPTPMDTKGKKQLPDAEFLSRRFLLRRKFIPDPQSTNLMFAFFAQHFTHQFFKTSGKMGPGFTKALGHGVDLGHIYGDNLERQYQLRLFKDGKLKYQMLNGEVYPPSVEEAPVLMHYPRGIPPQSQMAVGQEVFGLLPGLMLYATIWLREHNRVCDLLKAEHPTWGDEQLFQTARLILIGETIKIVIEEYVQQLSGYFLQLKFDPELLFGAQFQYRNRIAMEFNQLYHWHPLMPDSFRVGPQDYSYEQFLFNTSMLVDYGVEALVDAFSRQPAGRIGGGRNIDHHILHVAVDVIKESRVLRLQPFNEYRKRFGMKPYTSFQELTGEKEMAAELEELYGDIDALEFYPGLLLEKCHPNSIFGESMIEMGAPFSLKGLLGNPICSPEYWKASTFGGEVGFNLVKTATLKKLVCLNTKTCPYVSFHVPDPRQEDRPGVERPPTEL
Description: Inhibition of ovine COX1 by EIA

[3] = Selectivity index, ratio of IC50 for ovine COX1 to IC50 for human recombinant COX2

Row | Structure (SMILES) | IC50 [1] | IC50 [2] | Ratio IC50 [3]
1 | CS(=O)(=O)c1ccc(C(CCF)=C(c2ccccc2)c2ccccc2)cc1 | > 100 µM | > 100 µM | 
2 | CCCC/C(=C(\c1ccccc1)c1ccc(OC)cc1)c1ccc(S(C)(=O)=O)cc1 | 7.7 µM | > 100 µM | > 13
3 | CC/C(=C(\c1ccccc1)c1ccc(OC)cc1)c1ccc(S(C)(=O)=O)cc1 | 10.7 µM | > 100 µM | > 9.3
4 | CCCCC(=C(c1ccccc1)c1ccccc1)c1ccc(S(C)(=O)=O)cc1 | 2.7 µM | 9.1 µM | 3.4
5 | CCCC/C(=C(\c1ccccc1)c1ccc(O)cc1)c1ccc(S(C)(=O)=O)cc1 | 11.8 µM | > 100 µM | > 8.5
6 | CCCC/C(=C(\c1ccccc1)c1ccc(OCCF)cc1)c1ccc(S(C)(=O)=O)cc1 | 22.3 µM | > 100 µM | > 4.5
7 | CCC(=C(c1ccccc1)c1ccccc1)c1ccc(S(C)(=O)=O)cc1 | 1.2 µM | 31.6 µM | 26.3

Reference: ChEMBL document CHEMBL1221239, “Triaryl (Z)-olefins suitable for radiolabeling with carbon-11 or fluorine-18 radionuclides for positron emission tomography imaging of cyclooxygenase-2 expression in pathological disease” (Bioorg Med Chem Lett, 2010)
